Data as given in US7166618B2, “Nitrosated and nitrosylated cyclooxygenase-2 inhibitors, compositions and methods of use” (NitroMed, Inc., priority 1999, dated 2007).

System: rat aortic smooth muscle rings
Test: Relaxation of phenylephrine-contracted rat aortic smooth muscle rings
Settings: rings precontracted with 10 μM phenylephrine
Method: Male Sprague-Dawley rats (Charles River Laboratories (Wilmington, Mass.) were euthanized by intraperiton injection of a high dose of sodium pentobarbitone (80–100 mg/kg). The thoracic aorta was rapidly excised and immediately placed in a Petri dish containing warm (37° C.) oxygenated (95% O2 and 5% CO2) Kreb's buffer (composition per millimolar: NaCl (119); KCl (4.69); CaCl2.H2O (2.52); MgSO4.7H2O (0.57); NaHCO3 (25); NaH2PO4.H2O (1.01) and glucose (11.1). Under a stereoscopic dissecting microscope, the aorta was cleaned, freed from adhering fat and connective tissues. The tissue was cut into ring segments, each approximately 2–3 mm in length.
For experiments to measure relaxation of the tissue under various conditions, a stainless steel tissue holder and an U-shaped stainless steel wire were inserted into the lumen of the aortic ring. The tissue holder anchored the ring at the bottom of the organ bath whereas the end of the U-shaped steel wire was tied with fine silk thread so that it connected to the FT-202 transducer. The tissue holder and the steel wire along with the aortic ring were then suspended in a 5-mL double-jacketed temperature-controlled glass organ bath (Radnoti Glass Technology, Inc., Monrovia, Calif.) filled with fresh Kreb's buffer. A mixture of 95% O2 and 5% CO2 was bubbled through a porous sintered disc at the bottom of the bath. The rings were given an initial resting tension of 1.5 g and the preparation was allowed to equilibrate at the initial tension for about 90 minutes. During this equilibration period, the bath fluid was changed every 15 minutes and replaced with fresh prewarmed (37° C.) Kreb's buffer. The isometric tension of the aortic muscle at rest and its response to different stimuli were recorded on a Power Macintosh 6100 computer via a MacLab 8/S computer interface (CB Sciences, Inc, Milford, Mass.) after an initial amplification through a low-noise ETH-400 bioamplifier (CB Sciences, Inc, Milford, Mass.). Contractile responsiveness of the tissue strips was established with 10 μM phenylephrine and the strips were incubated with the drug for 20 minutes to establish a steady level of contraction. To test the relaxation effects, test compounds were added to the phenylephrine-precontracted strips in the tissue bath at cumulative concentrations of 0.1 μM to 0.1 mM. Concentration of test compounds was increased only after relaxation at the previous concentration had reached a plateau level.

NS(=O)(=O)c1ccc(-c2c(-c3ccccc3)noc2CO[N+](=O)[O-])cc1 [Example 2b, 4-(5-((Nitrooxy)methyl)-3-phenylisoxazol-4-yl)benzenesulfonamide]
relaxation of aortic smooth muscle ring (100 nM to 100 μM test compound): induced the relaxation of the aortic ring | relaxation compared with reference NO donor (ISDN or GSNO) (comparator as in the value): comparable to that obtained with ISDN
